In patent US5877154A, “Pharmaceutical compositions for the treatment or prevention of disorders in the eye” (Ramot University Authority for Applied Research and …, priority 1992, dated 1999):

Key:
[1] = test system: bovine vascular endothilial cells (ABAE); experiment: 3H-Thymidine uptake by bovine vascular endothelial cells; type: cell-based; details: bFGF 9 ng/ml; EGF 10 ng/ml; melanotropin 10^-6 M and 10^-7 M; single set of experiments
Experimental: ABAE cells were grown in DMEM (Dulbeccos Modified Eagles Media) supplemented with 5% heat inactivated fetal calf serum, 5% heat inactivated newborn calf serum, 2 mM glutamine and antibiotics (100 U/ml penicillin G, 0.25 mg/ml amphotericin B and 0.1 mg/ml streptomycin) (all from Biological Industries, Beth HaEmek, Israel) in 56.7 cm^2 tissue culture dishes (Nunc, Roskilde, Denmark) at 37° C. in a humidified atmosphere incubator with 10% CO2.
The cultures were supplemented every other day with 10^-9 ng/ml of bFGF until they reached confluency.
The cells were then trypsinized by adding 0.041% trypsin (Biological Industries, Beth HaEmek, Israel) for a few minutes at 37° C. The cells were then diluted by a factor of six and plated in microwell plates. Growth medium was changed twice a week.
The cells were then divided into five groups as described in Examples 1 and 2 and a different medium was added to the wells of each group as follows: (1) serum free medium containing melanotropin 10^-6 M; (2) serum free medium containing melanotropin 10^-7 M; (3) serum free medium containing EGF 10 ng/ml; (4) serum free medium containing bFGF 9 ng/ml; and (5) serum free medium alone.
The degree of ^3 H-Thymidine uptake by the cells was again determined as described in Examples 1 and 2.

[2] = test system: human skin fibroblast (HSF) cell culture; experiment: 3H-Thymidine uptake by human skin fibroblast cell culture; type: cell-based; details: bFGF 9 ng/ml; EGF 10 ng/ml; melanotropin 10^-6 M and 10^-7 M; serum free medium, FIG. 2
Experimental: HSF cells were grown in DMEM (Dulbeccos Modified Eagles Media) supplemented with 10% heat inactivated fetal calf serum, 2 mM glutamine and antibiotics (100 U/mi penicillin G, 0.25 mg/ml amphotericin B and 0.1 mg/ml streptomycin) (Biological Industries, Beth Haemek, Israel) in 56.7 cm^2 tissue culture flasks (Nunc, Roskilde, Denmark) at 37° C. in a 10% CO2 humidified atmosphere incubator. When the cells reached confluency, they were tripsinized by incubation with 0.083% tripsine (Biological Industries, Beth HaEmek, Israel) for a few minutes at 37° C. and seeded (please complete). The growth medium of the cells with or without drugs was changed twice a week.
The wells were then divided into five groups and a different medium was added to the wells of each group as described in Example 1. The medium added to each of the five groups was: (1) serum free medium containing melanotropin 10^-6 M; (2) serum free medium containing melanotropin 10^-7 M; (3) serum free medium containing EGF 10 ng/ml; (4) serum free medium containing bFGF 9 nn/ml; and (5) serum free medium only.
The degree of ^3 H-Thymidine uptake by human skin fibroblast was determined as described in Example 1.

bovine RPE cells = experiment: wound closure technique: proliferation and migration of RPE cells over denuded area; type: cell-based; details: bFGF 10^-10 mg/ml
Experimental: The ability of RPE cells to proliferate and migrate over denuded areas was measured using a slight modification of the previously known technique termed "wound closure technique" (Jumblatt and Neufeld, 1986).
In this example bovine RPE cells were grown as described in Example 1 and plated in microwell plates containing 16 ml wells. When the cultures reached confluency, sloughing of the cells from a centrally located area in each well was carried out using a very sharp blade. In order to remove non adherent cells, each well was rinsed with a 1 ml Earle's balanced salt solution (EBSS: Gibco). The cultures were photographed at the time of the sloughing and at 12, 24 and 48 hours after the sloughing procedure. In this way the size of the denuded area in the culture at the time of the sloughing was documented and could be compared later to the same cultures at different time periods after the denudation.
The ability of the bovine RPE cells to proliferate and migrate over the denuded area in the well was determined by analyzing the covered and uncovered area in the photographs of the cultures taken at different time periods as described in Jumblatt & Neufeld (ibid). The rate of the "wound" closure was calculated as mm^2 per hour or as the percentage of the covered area in the culture wells at a specific time period.
The bovine RPE cell cultures were divided into six groups. […]

[3] = test system: leukotriene B4 (LTB4) production in the corneas; experiment: LTB4 production in corneas of rats exposed to UV irradiation; type: in vivo, albino rats; details: dexamethasone 4 mg/kg per day, melanotropin 10 μg/kg per day, irradiated untreated 2.47±0.8
Experimental: The antinflammatory activity of melanotropin in the eye was measured by the ability of the melanotropin to inhibit the production of the leukotriene (LTB4) which is produced during the inflammatory response elicited by noxious stimulae to the cornea.
The ability of melanotropin to inhibit an inflammatory response was determined in corneas of albino rats subjected to UV irradiation. The parameter used to measure the inflammatory response was the amount of production of leukotriene B4--known for its modulatory action in inflammation.
One eye of albino rats of either sex weighing 200-250 gm was exposed to UV irradiation (200-400 nm) for 15 min. daily for 4 consecutive days. The other contralateral eye of each rat was not exposed to the irradiation and served as a control. […]
In the treated group of animals, the specific treatment began each day within one hour after the UV exposure. […] At the end of the incubation, a sample was obtained from the medium and the contents of the leukotrien B4 (LTB4) was determined by a radioimmunoassay (RIA) technique using a New England Nuclear Kit with a specific antibody against LTB4.

[4] = test system: prostaglandin type E2 (PGE2) production; experiment: PGE2 production in eyes of rats exposed to UV irradiation; type: in vivo, albino rats; details: dexamethasone 4 mg/kg per day, melanotropin 10 μg per day
Experimental: One eye of albino rats of either sex weighing 200-250 gm was exposed to UV irradiation (200-400 nm) for 15 min. daily for 4 consecutive days. The other contralateral eye of each rat was not exposed to the irradiation and served as a control.
The animals were divided into three groups (8 rats in each group) as follows: (1) untreated; (2) rabbits exposed to UV irradiation and a daily intermuscular (i.m.) injection of 4 mg/kg dexamethasone; and (3) rabbits exposed to UV irradiation and treated with a daily injection (i.m.) of 10 μg/kg of melanotropin.
In the treated group of animals, the specific treatment began each day within one hour after the UV exposure. The animals were sacrificed two days following the last UV irradiation and the eyes were frozen at -70° C. The cornea was disected and incubated in a shaking bath at 37° C. for 40 mins. in a Heppes buffer (pH=7.4). At the end of the incubation, a sample was obtained from the medium and the contents of the leukotrien B4 (LTB4) was determined by a radioimmunoassay (RIA) technique using a New England Nuclear Kit with a specific antibody against LTB4.
The production of prostaglandin type E2 (PGE2) was also measured in the eyes of three groups of rats. The amount of PGE2 in the eyes exposed to UV irradiation was higher than in the nonirradiated control eyes (4.1±1.9 pg/mg weight as compared to 1.8±0.3 pg/mg weight, p=0.001).

bFGF: basic fibroblast growth factor, comparison growth factor
3H-Thymidine uptake by the bovine vascular endothilium cells [1]: significant induction | 3H-Thymidine uptake of human skin fibroblasts as compared to cells treated with medium alone [2]: five-fold increase | cell covered area in the wells (bovine RPE cells; 12 hours after the wounding): 11.4±1.1 mm^2 | cell covered area in the culture (bovine RPE cells; 48 hours after addition, p<0.05 vs medium alone): 21.1±0.7 mm^2

EGF: Epidermal growth factor, comparison growth factor
3H-Thymidine uptake by the bovine vascular endothilium cells [1]: significant induction | 3H-Thymidine uptake of human skin fibroblasts as compared to cells treated with medium alone [2]: did not cause any increase

C[C@@H]1C[C@H]2[C@@H]3CCC4=CC(=O)C=C[C@]4(C)[C@@]3(F)[C@@H](O)C[C@]2(C)[C@@]1(O)C(=O)CO [dextamethasone, dexamethasone]
LTB4 produced by the corneas of the UV irradiated eyes [3]: 9.38±2.4 pg/mg weight | PGE2 produced by UV irradiated corneas compared with irradiated but untreated corneas [4]: lower than the amount of the PGE2 in the irradiated but untreated rats' corneas
